These results are taken from PubChem BioAssay (NCI).

Values joined by “and” are separate entries in the source; they are usually repeats but may differ in a detail not shown here. Equal entries are not always repeated.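 Interpolation was linear, between the two tested concentrations surrounding the appropriate level; five concentrations were tested over 48 hours in 96-well plates. The concentration for 50% growth inhibition is given as GI50. Definition used: TGI = concentration required for complete inhibition of growth.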

Among the test systems are 786-0 renal; ACHN renal; CAKI-1 renal; CCRF-CEM leukemia; MDA-MB-435; NCI/ADR-RES ovarian; OVCAR-3 ovarian; SR leukemia; T-47D breast; TK-10 renal.
What all share (test): NCI anticancer screen, dose series, 48 h

For the compound `CN(c1ccccc1)c1c2ccccc2nc2[nH]c3ccccc3c12`, the GI50 with 786-0 renal is 1.76 µM; in the test with ACHN renal, 1.43 µM; in the test on CAKI-1 renal it was 1.92 µM; in the test with CCRF-CEM leukemia it was 1.27 µM; in the test with MDA-MB-435 it was 3.26 µM; with NCI/ADR-RES ovarian it was 7.79 µM. The GI50 was 2 µM in the test on OVCAR-3 ovarian, 0.336 µM in the test on SR leukemia, 3.84 µM with T-47D breast and 1.26 µM with TK-10 renal. The TGI was 4.33 µM in the test on 786-0 renal; 3.2 µM in the test with ACHN renal; 5.92 µM in the test on CAKI-1 renal; greater than 100 µM in the test with CCRF-CEM leukemia; 9.25 µM with MDA-MB-435; greater than 47.8 µM in the test on NCI/ADR-RES ovarian. The TGI in the test with OVCAR-3 ovarian is 6.01 µM; in the test with SR leukemia it was greater than 100 µM; in the test with T-47D breast, 32.6 µM; with TK-10 renal, 3.5 µM.
Consider `O=C1NC(=O)C2C3C=CC(C12)C1C2C(=O)NC(=O)C2C31` (stereo unspecified), for which the GI50 is greater than 250 µM with 786-0 renal; 766 µM in the test with ACHN renal; 568 µM in the test on CAKI-1 renal; 237 µM in the test with CCRF-CEM leukemia; greater than 250 µM in the test with MDA-MB-435; greater than 1000 µM in the test on NCI/ADR-RES ovarian. Moreover, the GI50 in the test on OVCAR-3 ovarian is greater than 909 µM; in the test with SR leukemia, 68.9 µM and 108 µM; in the test with T-47D breast, 480 µM; in the test with TK-10 renal it was 695 µM. Besides, the TGI in the test with 786-0 renal is greater than 1000 µM; in the test on ACHN renal it was greater than 1000 µM; in the test on CAKI-1 renal, 250 µM and > 1000 µM; in the test on CCRF-CEM leukemia, 250 µM and > 1000 µM; in the test with MDA-MB-435, greater than 1000 µM; in the test with NCI/ADR-RES ovarian, greater than 1000 µM. Also, the TGI is 250 µM and > 1000 µM with OVCAR-3 ovarian; 250 µM and > 871 µM in the test with SR leukemia; greater than 1000 µM in the test on T-47D breast; greater than 1000 µM in the test on TK-10 renal.
For `O=S(=O)(Nc1ccccc1)c1ccc(C2CC3(Cl)C(Cl)=C(Cl)C2(Cl)C3(Cl)Cl)cc1` (stereo unspecified), the GI50 with 786-0 renal was 2.15 µM; in the test with ACHN renal, 3.37 µM; with CAKI-1 renal, 2.16 µM; in the test on CCRF-CEM leukemia, 3.24 µM; in the test on MDA-MB-435 it was 2.34 µM; in the test on NCI/ADR-RES ovarian, 2.95 µM. Besides, the GI50 in the test with OVCAR-3 ovarian was 2.18 µM; in the test on SR leukemia it was 2.08 µM; with T-47D breast it was 2.54 µM; in the test with TK-10 renal, 4.4 µM. Moreover, the TGI in the test on 786-0 renal stood at 4.23 µM; with ACHN renal, 10.5 µM; with CAKI-1 renal it was 6.27 µM; in the test with CCRF-CEM leukemia, 11.9 µM; in the test on MDA-MB-435, 5.44 µM; with NCI/ADR-RES ovarian, 7.98 µM. Further, the TGI with OVCAR-3 ovarian was 4.13 µM; in the test on SR leukemia it was 5.2 µM; with T-47D breast, 6.82 µM; in the test on TK-10 renal, 14.6 µM.
`COc1ccc(-n2c(=O)c3ccccc3n(Cc3ccc(C(=O)NO)cc3)c2=O)cc1`: the GI50 was 2.53 µM in the test on 786-0 renal; 3.23 µM in the test with ACHN renal; 6.39 µM in the test with CAKI-1 renal; 2.8 µM in the test with CCRF-CEM leukemia; 1.74 µM in the test with MDA-MB-435; 18.2 µM in the test with NCI/ADR-RES ovarian. The GI50 in the test on OVCAR-3 ovarian was 2.07 µM; in the test with SR leukemia it was 2.86 µM; in the test with T-47D breast, 1.9 µM; in the test on TK-10 renal, 2.33 µM. Besides, the TGI was 7.09 µM in the test on 786-0 renal; 13.5 µM in the test with ACHN renal; 23.9 µM in the test with CAKI-1 renal; greater than 100 µM with CCRF-CEM leukemia; 3.56 µM in the test on MDA-MB-435; greater than 100 µM in the test on NCI/ADR-RES ovarian. For the same compound, the TGI was 5.95 µM with OVCAR-3 ovarian, greater than 100 µM with SR leukemia, 6.63 µM in the test on T-47D breast and 12.9 µM in the test with TK-10 renal.
Consider `O=C1[C@H](Cc2ccc(O)cc2)N2C(=O)CCN(C(=O)NCc3ccccc3)[C@H]2CN1Cc1cccc2ccccc12`, for which the GI50 is 3.15 µM in the test on 786-0 renal; 4.73 µM in the test with ACHN renal; 14.2 µM with CAKI-1 renal; 2.19 µM in the test with CCRF-CEM leukemia; 3.96 µM in the test with MDA-MB-435; 43.5 µM in the test with NCI/ADR-RES ovarian. In addition, the GI50 in the test with OVCAR-3 ovarian is 1.71 µM; with SR leukemia, 3.19 µM; with T-47D breast, 2.34 µM; in the test on TK-10 renal, 3.88 µM. In addition, the TGI in the test on 786-0 renal was greater than 46.8 µM; with ACHN renal, 57.7 µM; in the test with CAKI-1 renal, greater than 80.1 µM; in the test with CCRF-CEM leukemia it was greater than 53.1 µM; with MDA-MB-435, 21.4 µM; with NCI/ADR-RES ovarian, greater than 100 µM. The TGI in the test on OVCAR-3 ovarian is 8.91 µM; with SR leukemia, greater than 54.1 µM; with T-47D breast, 15.4 µM; in the test with TK-10 renal, 30.7 µM.
For the compound `O=C1NC(c2ccccc2Cl)Nc2ccccc21` (stereo unspecified), the TGI with 786-0 renal is greater than 100 µM; in the test on ACHN renal, greater than 100 µM; with CAKI-1 renal, 91.8 µM; with CCRF-CEM leukemia it was greater than 81.5 µM; with MDA-MB-435, 4.76 µM; with NCI/ADR-RES ovarian, 27.5 µM. The TGI with OVCAR-3 ovarian is 31.3 µM; in the test with SR leukemia, greater than 100 µM; in the test on T-47D breast, greater than 100 µM; in the test with TK-10 renal, greater than 100 µM.
As for `CC(=O)O[C@H]([C@H](OC(C)=O)[C@H](C)OC(C)=O)[C@@H](/C=C/[C@H]1CC=CC(=O)O1)OC(C)=O`, the GI50 is 97.3 µM in the test with 786-0 renal; greater than 100 µM in the test on ACHN renal; 79.7 µM in the test with CAKI-1 renal; 36.7 µM in the test with CCRF-CEM leukemia; 41.2 µM in the test on MDA-MB-435; greater than 100 µM with NCI/ADR-RES ovarian. The GI50 in the test with SR leukemia was 73.7 µM; with T-47D breast, 38.3 µM; in the test on TK-10 renal, greater than 100 µM. The TGI in the test on 786-0 renal, in the test with ACHN renal, in the test on CAKI-1 renal, in the test with CCRF-CEM leukemia, with MDA-MB-435 and with NCI/ADR-RES ovarian was greater than 100 µM each time. For the same compound, the TGI in the test with SR leukemia, with T-47D breast and in the test on TK-10 renal was greater than 100 µM each time.
As for `C=CCN(CC=C)Cc1c[nH]c2ccccc12`, the GI50 in the test with 786-0 renal is 4.33 µM; with ACHN renal, 36.3 µM; in the test on CAKI-1 renal, 19.8 µM; in the test with CCRF-CEM leukemia it was 56.9 µM; with MDA-MB-435, 10.9 µM; in the test on NCI/ADR-RES ovarian it was 18.3 µM. Also, the GI50 with SR leukemia is 30.3 µM; in the test with T-47D breast, greater than 100 µM; in the test with TK-10 renal it was 6.93 µM. The TGI with 786-0 renal is 14.7 µM; with ACHN renal, greater than 100 µM; in the test with CAKI-1 renal, greater than 100 µM; in the test on CCRF-CEM leukemia it was greater than 100 µM; in the test on MDA-MB-435, 32.9 µM; with NCI/ADR-RES ovarian, 43.8 µM. The TGI with SR leukemia is greater than 100 µM; in the test with T-47D breast, greater than 100 µM; in the test on TK-10 renal it was 38.7 µM.
